Measurements from patent US10336701B2, “Pyridin-2-one derivatives of formula (II) useful as EP3 receptor antagonists” (Janssen Pharmaceutica NV, priority 2017, dated 2019).

target: T1, EP3 receptor (Homo sapiens, UniProt P43115); assay: [3H]-PGE2 binding assay (EP3 competition binding); settings: [3H]-PGE2 Binding Ki
T1 construct: purchased Millipore HTS092M
T1 sequence (P43115 1-390): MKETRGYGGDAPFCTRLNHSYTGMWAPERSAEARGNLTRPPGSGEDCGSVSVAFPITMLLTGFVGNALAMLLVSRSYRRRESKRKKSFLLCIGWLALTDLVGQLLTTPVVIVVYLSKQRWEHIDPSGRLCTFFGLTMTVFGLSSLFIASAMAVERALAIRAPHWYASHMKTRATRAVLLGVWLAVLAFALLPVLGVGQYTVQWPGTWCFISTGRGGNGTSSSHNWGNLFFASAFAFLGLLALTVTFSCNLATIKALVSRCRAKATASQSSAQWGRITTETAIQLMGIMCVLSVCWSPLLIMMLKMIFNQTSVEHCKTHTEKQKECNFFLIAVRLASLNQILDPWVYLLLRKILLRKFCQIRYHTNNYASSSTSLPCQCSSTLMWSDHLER
Method: EP3 competition binding was determined using the following materials and experimental conditions:
Beads=Perkin Elmer RPNQ0001
EP3 membrane=Millipore HTS092M
Membrane concentration=2 μg/well
Beads concentration=0.25 mg/well
[3H]-PGE2=2 nM; DMSO—0.1%
Binding buffer=50 mM Tris, 10 mM MgCl2, 1 mM • EDTA, PH 7.4.
The binding buffer was removed from refrigeration (@ 4° C.) and allowed to warm to room temperature. Test compound (@ stock concentration of […] in DMSO) was serial dilutes (1:3) with 100% DMSO using Echo plate. Diluted test compound (30 nL) was dispensed to the 384-well assay plate (using Echo 550 Labcyte System). To each well was then added assay buffer (5 μl) and each well was spun. Beads were weighed out, dissolved in assay buffer to a concentration of 0.25 mg/15 μl. Original membrane was diluted with assay buffer to a concentration of 2 μg/5 μl. […] To each test well were then added diluted [3H]-PGE2 (5 μl), diluted membrane (5 μl), and dissolved beads (15 μl). The plate was equilibrated at room temperature on a plate shaker for 2 hours and then read with a TOPCOUNT scintillation plate reader. Results were analyzed using a Prism program with non-linear regression, one-site fit for Ki.

SMILES	Ki [µM]
CCn1ncc2c(F)cc(-c3ccc(C4CC5CCC(C4)N5S(=O)(=O)C(C)C)c(=O)[nH]3)cc21 (stereo not shown) [compound 206, 6-(1-ethyl-4-fluoro-1H-indazol-6-yl)-3-(8-(isopropylsulfonyl)-8-azabicyclo[3.2.1]octan-3-yl)pyridin-2(1H)-one]	0.025
CCn1ncc2c(F)cc(-c3ccc(C4CC5CCC(C4)N5C(=O)NC(C)C)c(=O)[nH]3)cc21 (stereo not shown) [compound 208, 3-(6-(1-ethyl-4-fluoro-1H-indazol-6-yl)-2-oxo-1,2-dihydropyridin-3-yl)-N-isopropyl-8-azabicyclo[3.2.1]octane-8-carboxamide]	0.158

same assay, conditions: read-out: [3H]-PGE2 Binding Ki

Ki [µM]	SMILES
0.006	CCn1ncc2c(F)cc(-c3ccc(C(CC4(C)CCNC4=O)C(C)C)c(=O)[nH]3)cc21 (stereo not shown) [compound 146, 6-(1-ethyl-4-fluoro-1H-indazol-6-yl)-3-(3-methyl-1-(3-methyl-2-oxopyrrolidin-3-yl)butan-2-yl)pyridin-2(1H)-one]
0.228	CCC(/C=C1\OC(=O)NC1=O)(CC)c1ccc(-c2ccc3cccc(C(F)(F)F)c3c2)[nH]c1=O [compound 23, 5-(2-ethyl-2-(2-oxo-6-(8-(trifluoromethyl)naphthalen-2-yl)-1,2-dihydropyridin-3-yl)butylidene)oxazolidine-2,4-dione]
0.025	CCn1ncc2c(F)cc(-c3ccc(C(C(C)C)n4cnnc4)c(=O)[nH]3)cc21 (stereo not shown) [Compound #172, 6-(1-ethyl-4-fluoro-1H-indazol-6-yl)-3-(2-methyl-1-(4H-1,2,4-triazol-4-yl)propyl)pyridin-2(1H)-one]
0.632	CCn1ncc2c(F)cc(-c3ccc(C(CC4CCNC4=O)C(C)C)c(=O)[nH]3)cc21 (stereo not drawn) [compound 147, Syn-6-(1-ethyl-4-fluoro-1H-indazol-6-yl)-3-(3-methyl-1-(2-oxopyrrolidin-3-yl)butan-2-yl)pyridin-2(1H)-one]
0.014	CCN1CCOc2c(F)cc(-c3ccc(C(CC)(CC)CC4CCNC4=O)c(=O)[nH]3)cc21 (stereo not shown) [compound 17, 6-(4-ethyl-8-fluoro-3,4-dihydro-2H-benzo[b][1,4]oxazin-6-yl)-3-(3-((2-oxopyrrolidin-3-yl)methyl)pentan-3-yl)pyridin-2(1H)-one]
0.019	CCn1ncc2c(F)cc(-c3ccc(C(CC)(CC)c4nnc(N)s4)c(=O)[nH]3)cc21 [Compound #52, 3-(3-(5-amino-1,3,4-thiadiazol-2-yl)pentan-3-yl)-6-(1-ethyl-4-fluoro-1H-indazol-6-yl)pyridin-2(1H)-one]
0.006	CCc1nnc(C(CC)(CC)c2ccc(-c3cc(F)c4cnn(CC)c4c3)[nH]c2=O)o1 [Compound #53, 3-(3-(5-ethyl-1,3,4-oxadiazol-2-yl)pentan-3-yl)-6-(1-ethyl-4-fluoro-1H-indazol-6-yl)pyridin-2(1H)-one]
0.007	CCn1ncc2c(F)cc(-c3ccc(C(CC)(CC)CC4CCCNC4=O)c(=O)[nH]3)cc21 (stereo not shown) [compound 58, 6-(1-ethyl-4-fluoro-1H-indazol-6-yl)-3-(3-((2-oxopiperidin-3-yl)methyl)pentan-3-yl)pyridin-2(1H)-one]
0.01	CCn1ncc2c(F)cc(-c3ccc(C4(C(C)C)OCCNC4=O)c(=O)[nH]3)cc21 (stereo not shown) [compound 248, 2-(6-(1-ethyl-4-fluoro-1H-indazol-6-yl)-2-oxo-1,2-dihydropyridin-3-yl)-2-isopropylmorpholin-3-one]
0.015	CCn1ncc2c(F)cc(-c3ccc(C4CCC5(CCNC5=O)CC4)c(=O)[nH]3)cc21 (stereo not shown) [compound 207, 8-(6-(1-ethyl-4-fluoro-1H-indazol-6-yl)-2-oxo-1,2-dihydropyridin-3-yl)-2-azaspiro[4.5]decan-1-one]
> 10	CCN1CCOc2c(F)cc(-c3ccc(C(/C=C4\CCNC4=O)(CC)CC)c(=O)[nH]3)cc21 [compound 25, (E)-6-(4-ethyl-8-fluoro-3,4-dihydro-2H-benzo[b][1,4]oxazin-6-yl)-3-(3-((2-oxopyrrolidin-3-ylidene)methyl)pentan-3-yl)pyridin-2(1H)-one]
0.452	CCn1ncc2c(F)cc(-c3[nH]c(=O)c(C(CC)(CC)CC4=CCNC4=O)cc3F)cc21 [compound 46, 6-(1-ethyl-4-fluoro-1H-indazol-6-yl)-5-fluoro-3-(3-((2-oxo-2,5-dihydro-1H-pyrrol-3-yl)methyl)pentan-3-yl)pyridin-2(1H)-one]
0.024	CCn1ncc2c(F)cc(-c3[nH]c(=O)c(C(CC)(CC)c4ncco4)cc3F)cc21 [Compound #37, 6-(1-ethyl-4-fluoro-1H-indazol-6-yl)-5-fluoro-3-(3-(oxazol-2-yl)pentan-3-yl)pyridin-2(1H)-one]
2.06	CCn1ncc2c(F)cc(-c3ccc(C(CC)(CC)c4nnc(N)o4)c(=O)[nH]3)cc21 [Compound #51, 3-(3-(5-amino-1,3,4-oxadiazol-2-yl)pentan-3-yl)-6-(1-ethyl-4-fluoro-1H-indazol-6-yl)pyridin-2(1H)-one]
0.029	CCn1ncc2c(F)cc(-c3ccc([C@@]45CCC[C@@H](C4)C(=O)O5)c(=O)[nH]3)cc21 (racemic) [compound 299]
0.007	CCn1ncc2c(F)cc(-c3ccc(C(CC)(CC)Cc4nnc[nH]4)c(=O)[nH]3)cc21 [compound 15, 3-(3-((4H-1,2,4-triazol-3-yl)methyl)pentan-3-yl)-6-(1-ethyl-4-fluoro-1H-indazol-6-yl)pyridin-2(1H)-one]
0.025	CCn1ncc2c(F)cc(-c3[nH]c(=O)c(C(/C=C4\CCNC4=O)(CC)CC)cc3F)cc21 [compound 47, (E)-6-(1-ethyl-4-fluoro-1H-indazol-6-yl)-5-fluoro-3-(3-((2-oxopyrrolidin-3-ylidene)methyl)pentan-3-yl)pyridin-2(1H)-one]
0.011	CCn1ncc2c(F)cc(-c3ccc(C(CC4CCC(=O)N4)C(C)C)c(=O)[nH]3)cc21 (stereo not shown) [compound 151, 6-(1-ethyl-4-fluoro-1H-indazol-6-yl)-3-(3-methyl-1-(5-oxopyrrolidin-2-yl)butan-2-yl)pyridin-2(1H)-one]
0.013	CCn1ncc2c(F)cc(-c3ccc(C(CC)(CC)c4nnc(C(C)C)o4)c(=O)[nH]3)cc21 [Compound #38, 6-(1-ethyl-4-fluoro-1H-indazol-6-yl)-3-(3-(5-isopropyl-1,3,4-oxadiazol-2-yl)pentan-3-yl)pyridin-2(1H)-one]
0.002	CCn1ncc2c(F)cc(-c3ccc(C(CC)(CC)c4nnc(N(C)C)s4)c(=O)[nH]3)cc21 [Compound #48, 3-(3-(5-(dimethylamino)-1,3,4-thiadiazol-2-yl)pentan-3-yl)-6-(1-ethyl-4-fluoro-1H-indazol-6-yl)pyridin-2(1H)-one]
0.292	CCC(/C=C1/OC(=O)NC1=O)(CC)c1ccc(-c2ccc3cc(F)cc(F)c3c2)[nH]c1=O [compound 32, (E)-5-(2-(6-(6,8-difluoronaphthalen-2-yl)-2-oxo-1,2-dihydropyridin-3-yl)-2-ethylbutylidene)oxazolidine-2,4-dione]
0.06	CCC(CC)(Cc1nnc[nH]1)c1ccc(-c2ccc3cc(F)cc(F)c3c2)[nH]c1=O [compound 279, 3-(3-((4H-1,2,4-triazol-3-yl)methyl)pentan-3-yl)-6-(6,8-difluoronaphthalen-2-yl)pyridin-2(3H)-one]
0.071	CC(C)C(/C=C1/OC(=O)NC1=O)c1ccc(-c2ccc3cccc(C#N)c3c2)[nH]c1=O (stereo not shown) [compound 310, (E)-7-(5-(1-(2,4-dioxooxazolidin-5-ylidene)-3-methylbutan-2-yl)-6-oxo-1,6-dihydropyridin-2-yl)-1-naphthonitrile]
